Literature values as cited in patent US5840756A, “Pharmaceutical composition of L-DOPA ester” (priority 1996, dated 1998).

Columns and labels:
[1] = oral or parenteral route
[2] = oral administration; L-DOPA ethyl ester vs L-DOPA
[3] = not given; remark: listed apart in the source

| Function as a prodrug of levodopa [1] | Water solubility | Treated patients in whom disabling motor fluctuations appear ([3]; within five years after initiation, in combination with carbidopa or benserazide) | SMILES | Time courses of action [2] | Relief from the `off` state ([3]; direct instillation of a slurry through a duodenal tube) | Effect of oral dosing with a dilute aqueous solution ([3]; oral, dilute aqueous solution) |
| --- | --- | --- | --- | --- | --- | --- |
| function as a prodrug of levodopa |  |  | CCOC(=O)[C@@H](N)Cc1ccc(O)c(O)c1 [L-DOPA ethyl ester] | same time courses of action |  |  |
|  | low water solubility | about 50% | N[C@@H](Cc1ccc(O)c(O)c1)C(=O)O [levodopa] | same time courses of action | rapid relief | appeared to be effective |
